Assay results as given in patent publication US9181273B2, “Morpholine-spirocyclic piperidine amides as modulators of ion channels” (Vertex Pharmaceuticals Incorporated, priority 2011, dated 2015).

biological target: human NaV subtype, like NaV 1.7 (Homo sapiens, UniProt Q15858); test: E-VIPR optical membrane potential assay with electrical stimulation; format: cell-based; conditions: not given
Text: Sodium channels are voltage-dependent proteins that can be activated by inducing membrane voltage changes by applying electric fields. […] The instrument comprises a microtiter plate handler, an optical system for exciting the coumarin dye while simultaneously recording the coumarin and oxonol emissions, a waveform generator, a current- or voltage-controlled amplifier, and a device for inserting electrodes in well. Under integrated computer control, this instrument passes user-programmed electrical stimulus protocols to cells within the wells of the microtiter plate.
24 hours before the assay on E-VIPR, HEK cells expressing human NaV subtype, like NaV 1.7, are seeded in 384-well poly-lysine coated plates at 15,000-20,000 cells per well. Other subtypes are performed in an analogous mode in a cell line expressing the NaV of interest. […] Cells are grown in vented cap flasks, in 90% humidity and 10% CO2, to 100% confluence. They are usually split by trypsinization 1:10 or 1:20, depending on scheduling needs, and grown for 2-3 days before the next split.
To make the solution Add volume of 10% Pluronic F127 stock equal to volumes of CC2-DMPE+DiSBAC6(3). The order of preparation is first mix Pluronic and CC2-DMPE, then add DiSBAC6(3) while vortexing, then add Bath1+β-Cyclodextrin.
1) Pre-spot compounds (in neat DMSO) into compound plates. […] Final compound plate volume will be 80 μL (80-fold intermediate dilution from 1 μL DMSO spot; 160-fold final dilution after transfer to cell plate).
2) Prepare Hexyl Dye Solution.
3) Prepare cell plates. On the day of the assay, medium is aspirated and cells are washed three times with 100 μL of Bath1 Solution, maintaining 25 μL residual volume in each well.
4) Dispense 25 μL per well of Hexyl Dye Solution into cell plates. Incubate for 20-35 minutes at room temp or ambient conditions.
5) Dispense 80 μL per well of Bath1 into compound plates. Acid Yellow-17 (1 mM) is added and Potassium Chloride can be altered from 4.5 to 20 mM depending on the NaV subtype and assay sensitivity.
6) Wash cell plates three times with 100 μL per well of Bath1, leaving 25 μL of residual volume. Then transfer 25 uL per well from Compound Plates to Cell Plates. Incubate for 20-35 minutes at room temp/ambient condition
7) Read Plate on E-VIPR. Use the current-controlled amplifier to deliver stimulation wave pulses for typically 9 seconds and a scan rate of 400 Hz. A pre-stimulus recording is performed for 0.5 seconds to obtain the un-stimulated intensities baseline. The stimulatory waveform is applied for 9 seconds followed by 0.5 seconds of post-stimulation recording to examine the relaxation to the resting state. The stimulatory waveform of the electrical stimulation is specific for each cell type and can vary the magnitude, duration and frequency of the applied current to provide an optimal assay signal.
Data are analyzed and reported as normalized ratios of background-subtracted emission intensities measured in the 460 nm and 580 nm channels. Background intensities are then subtracted from each assay channel. Background intensities are obtained by measuring the emission intensities during the same time periods from identically treated assay wells in which there are no cells. The response as a function of time is then reported as the ratios obtained using the following formula: […]
The data is further reduced by calculating the initial (Ri) and final (Rf) ratios. These are the average ratio values during part or all of the pre-stimulation period, and during sample points during the stimulation period. The response to the stimulus R=Rf/Ri is then calculated and reported as a function of time.
Control responses are obtained by performing assays in the presence of a compound with the desired properties (positive control), such as tetracaine, and in the absence of pharmacological agents (negative control). Responses to the negative (N) and positive (P) controls are calculated as above. The compound antagonist activity A is defined as: […]

Sequence of human NaV subtype, like NaV 1.7 (Q15858 whole entry): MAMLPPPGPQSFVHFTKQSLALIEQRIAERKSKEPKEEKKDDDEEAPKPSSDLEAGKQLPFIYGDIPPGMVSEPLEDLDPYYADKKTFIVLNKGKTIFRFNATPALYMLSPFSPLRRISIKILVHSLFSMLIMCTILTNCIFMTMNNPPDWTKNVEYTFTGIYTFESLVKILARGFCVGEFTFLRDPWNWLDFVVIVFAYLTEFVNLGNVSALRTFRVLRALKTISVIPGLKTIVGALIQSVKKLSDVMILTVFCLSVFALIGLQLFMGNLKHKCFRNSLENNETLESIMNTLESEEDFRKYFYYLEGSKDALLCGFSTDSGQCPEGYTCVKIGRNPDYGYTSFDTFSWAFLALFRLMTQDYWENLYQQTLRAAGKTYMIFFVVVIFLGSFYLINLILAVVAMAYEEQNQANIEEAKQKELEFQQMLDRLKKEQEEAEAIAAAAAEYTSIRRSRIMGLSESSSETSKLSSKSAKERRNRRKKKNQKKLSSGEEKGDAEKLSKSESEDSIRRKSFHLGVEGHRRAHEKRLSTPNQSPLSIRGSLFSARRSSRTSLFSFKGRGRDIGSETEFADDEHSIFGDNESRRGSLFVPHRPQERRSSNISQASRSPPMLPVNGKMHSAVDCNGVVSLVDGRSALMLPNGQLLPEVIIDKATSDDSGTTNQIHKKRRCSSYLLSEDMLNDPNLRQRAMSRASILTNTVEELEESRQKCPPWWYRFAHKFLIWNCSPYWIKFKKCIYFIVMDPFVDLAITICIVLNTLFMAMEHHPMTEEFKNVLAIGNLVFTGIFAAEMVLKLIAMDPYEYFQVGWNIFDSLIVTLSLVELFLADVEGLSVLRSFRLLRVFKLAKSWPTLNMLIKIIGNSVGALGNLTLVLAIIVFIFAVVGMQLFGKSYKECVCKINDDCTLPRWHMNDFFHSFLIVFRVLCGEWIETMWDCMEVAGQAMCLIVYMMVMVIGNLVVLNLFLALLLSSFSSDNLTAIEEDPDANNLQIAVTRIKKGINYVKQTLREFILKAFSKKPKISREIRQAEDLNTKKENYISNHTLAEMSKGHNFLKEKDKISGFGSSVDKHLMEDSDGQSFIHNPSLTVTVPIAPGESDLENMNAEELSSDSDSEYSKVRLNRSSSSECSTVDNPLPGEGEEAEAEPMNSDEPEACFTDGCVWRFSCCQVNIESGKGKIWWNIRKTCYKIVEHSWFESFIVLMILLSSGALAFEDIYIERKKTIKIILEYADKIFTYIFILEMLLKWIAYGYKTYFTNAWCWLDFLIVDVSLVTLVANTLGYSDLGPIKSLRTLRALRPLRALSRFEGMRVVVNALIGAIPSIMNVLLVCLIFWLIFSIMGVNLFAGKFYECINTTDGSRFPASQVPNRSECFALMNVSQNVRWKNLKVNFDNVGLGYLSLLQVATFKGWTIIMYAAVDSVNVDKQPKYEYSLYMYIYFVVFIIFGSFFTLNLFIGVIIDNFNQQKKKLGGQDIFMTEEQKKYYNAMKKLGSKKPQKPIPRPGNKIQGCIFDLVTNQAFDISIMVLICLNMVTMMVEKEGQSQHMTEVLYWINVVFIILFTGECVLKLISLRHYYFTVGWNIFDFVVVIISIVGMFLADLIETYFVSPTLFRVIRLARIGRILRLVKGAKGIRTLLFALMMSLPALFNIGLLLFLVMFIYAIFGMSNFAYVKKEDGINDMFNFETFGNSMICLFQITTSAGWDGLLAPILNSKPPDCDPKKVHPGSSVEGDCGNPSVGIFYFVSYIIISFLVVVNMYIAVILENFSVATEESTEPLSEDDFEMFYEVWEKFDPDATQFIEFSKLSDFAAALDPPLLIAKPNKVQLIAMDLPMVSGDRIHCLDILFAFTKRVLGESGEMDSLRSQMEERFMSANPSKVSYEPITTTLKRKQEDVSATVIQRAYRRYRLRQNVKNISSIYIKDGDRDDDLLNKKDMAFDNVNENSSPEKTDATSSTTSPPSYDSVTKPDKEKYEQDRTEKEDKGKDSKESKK

Row | Structure (SMILES) | IC50 [µM]
1 | COc1cc(C(=O)N2CCC3(CC2)CN(CC(F)F)CC(c2ccccn2)O3)ccc1OC(C)C (centres unmarked) [Compound 3] | < 2

same assay, conditions: active against one or more sodium channels; assay and NaV subtype not specified for Table 3; read-out: IC50 Binned Activity Data

Row | Structure (SMILES) | IC50 [µM]
2 | CCC1CN(c2ncccn2)CC2(CCN(C(=O)c3ccc(C(O)(CC)CC)c(C)c3)CC2)O1 (centres unmarked) [Compound 1] | 2 to 5
3 | Cc1cc(C(=O)N2CCC3(CC2)CN(Cc2ccccc2)CC(CCO)O3)ccc1OC(C)C (centres unmarked) [Compound 2] | > 5
4 | CC(C)Oc1ccc(C(=O)N2CCC3(CC2)CN(CC(F)F)CC(c2ccc(F)cc2)O3)cc1CO (centres unmarked) [Compound 4] | 2 to 5
5 | COCC1CN(C2CCC(C)CC2)CC2(CCN(C(=O)c3ccc(OC(C)C)c(C)c3)CC2)O1 (centres unmarked) [Compound 5] | < 2
6 | Cc1cc(C(=O)N2CCC3(CC2)CN(c2ncccn2)CCO3)ccc1OC(C)C [Compound 6] | 2 to 5
7 | Cc1cc(C(=O)N2CCC3(CC2)CN(C)CC(c2ccccc2)O3)ccc1OC(C)C (centres unmarked) [Compound 7] | < 2
8 | COCC1CN(c2ncccn2)CC2(CCN(C(=O)c3ccc(S(=O)(=O)C(F)F)cc3)CC2)O1 (centres unmarked) [Compound 8] | 2 to 5
9 | CCN1CC2(CCN(C(=O)c3ccc(OC(C)C)c(C)c3)CC2)OC(c2ccccc2)C1=O (centres unmarked) [Compound 9] | 2 to 5
10 | CCN1CC2(CCN(C(=O)c3ccc(OC(C)C)c(C)c3)CC2)OCC1c1ccccc1 (centres unmarked) [Compound 10] | < 2
11 | Cc1cc(C(=O)N2CCC3(CC2)CN(CC(F)F)CC(c2ccnn2C)O3)ccc1OC(C)C (centres unmarked) [Compound 11] | < 2
12 | CC(C)(C)S(=O)(=O)c1ccc(C(=O)N2CCC3(CC2)CN(CC(F)(F)F)CC(c2ccccc2)O3)cc1 (centres unmarked) [Compound 12] | < 2
13 | CC(C)(C)Oc1ccc(C(=O)N2CCC3(CC2)CN(CC(F)(F)F)CC(c2ccccc2)O3)nc1 (centres unmarked) [Compound 13] | < 2
14 | COCC1CN(Cc2ccccn2)CC2(CCN(C(=O)c3ccc(OC(C)C)c(C)c3)CC2)O1 (centres unmarked) [Compound 14] | > 5
15 | COCC1CN(c2ncccn2)CC2(CCN(C(=O)c3ccc(OC(C)C)c(CO)c3)CC2)O1 (centres unmarked) [Compound 15] | > 5
16 | COCC1CN(c2cccc(C)n2)CC2(CCN(C(=O)c3ccc(OC(C)C)c(C)c3)CC2)O1 (centres unmarked) [Compound 16] | < 2
17 | CCC1CN(c2ccccn2)CC2(CCN(C(=O)c3ccc(C4(O)CCCC4)c(F)c3)CC2)O1 (centres unmarked) [Compound 17] | < 2
18 | CCC1CN(C(C)(C)C)CC2(CCN(C(=O)c3ccc(OC(C)C)c(C)c3)CC2)O1 (centres unmarked) [Compound 18] | < 2
19 | COCC1CN(c2ncccn2)CC2(CCN(C(=O)c3ccc(OC(C)C)c(F)c3)CC2)O1 (centres unmarked) [Compound 19] | < 2
20 | CCn1nccc1C1CN(CC(F)F)CC2(CCN(C(=O)c3ccc(OC(C)C)c(C)c3)CC2)O1 (centres unmarked) [Compound 20] | < 2
21 | Cc1cc(C(=O)N2CCC3(CC2)CN(CC(F)F)CC(c2cc[nH]n2)O3)ccc1OC(C)C (centres unmarked) [Compound 21] | < 2

Row | Structure (SMILES) | IC50 [µM]
22 | CCN1CC(c2ccccc2)OC2(CCN(C(=O)c3ccc(OC(C)C)c(C)c3)CC2)C1 (centres unmarked) [Compound 22] | < 2
23 | COCC1CN(CC#N)CC2(CCN(C(=O)c3ccc(OC(C)C)c(C)c3)CC2)O1 (centres unmarked) [Compound 23] | > 5
24 | Cc1cc(C(=O)N2CCC3(CC2)CN(CC(C)(C)O)CC(c2ccccc2)O3)ccc1OC(C)C (centres unmarked) [Compound 24] | < 2
25 | Cc1cc(C(=O)N2CCC3(CC2)CN(CCO)CC(c2ccccc2)O3)ccc1OC(C)C (centres unmarked) [Compound 25] | 2 to 5
26 | Cc1cc(C2CN(CC(F)(F)F)CC3(CCN(C(=O)c4ccc(OC(C)C)c(C)c4)CC3)O2)n[nH]1 (centres unmarked) [Compound 26] | 2 to 5
27 | Cc1cc(C(=O)N2CCC3(CC2)CN(CC(F)F)CC(c2ccc(F)cc2)O3)ccc1OC(C)C (centres unmarked) [Compound 27] | < 2
28 | CCN1CC(C)(C)OC2(CCN(C(=O)c3ccc(OC(C)C)c(C)c3)CC2)C1 [Compound 28] | > 5
29 | Cc1cc(C(=O)N2CCC3(CC2)CN(CC(C)C)CC(c2ccccc2)O3)ccc1OC(C)C (centres unmarked) [Compound 29] | < 2
30 | CC#CCN1CC(CC)OC2(CCN(C(=O)c3ccc(OC)c(C(F)(F)F)c3)CC2)C1 (centres unmarked) [Compound 30] | > 5
31 | COCC1CN(c2ccncc2)CC2(CCN(C(=O)c3ccc(OC(C)C)c(C)c3)CC2)O1 (centres unmarked) [Compound 31] | > 5
32 | COCC1CN(C)CC2(CCN(C(=O)c3ccc(OC(C)C)c(C)c3)CC2)O1 (centres unmarked) [Compound 32] | > 5
33 | Cc1cc(C(=O)N2CCC3(CC2)CN(CC(F)F)CC(c2ccccn2)O3)ccc1OC(C)C (centres unmarked) [Compound 33] | < 2
34 | CCC1CN(CC)CC2(CCN(C(=O)c3ccc(OC(C)C)c(C)c3)CC2)O1 (centres unmarked) [Compound 34] | > 5
35 | Cc1cc(C(=O)N2CCC3(CC2)CN(CC(F)F)CC(c2nccn2C)O3)ccc1OC(C)C (centres unmarked) [Compound 35] | > 5
36 | COC(=O)c1ccnc(N2CC(CO)OC3(CCN(C(=O)c4ccc(OC(C)C)c(C)c4)CC3)C2)n1 (centres unmarked) [Compound 36] | > 5
37 | Cc1cccc(C2CN(CC(F)F)CC3(CCN(C(=O)c4ccc(OC(C)C)c(C)c4)CC3)O2)n1 (centres unmarked) [Compound 37] | < 2
38 | CC(C)Oc1ccc(C(=O)N2CCC3(CC2)CN(CC(F)(F)F)CC(c2cc[nH]n2)O3)cc1F (centres unmarked) [Compound 38] | 2 to 5
39 | CC(C)(O)Cc1ccc(C(=O)N2CCC3(CC2)CN(CC(F)(F)F)CC(c2ccccc2)O3)cc1F (centres unmarked) [Compound 39] | 2 to 5
40 | CCC1COC2(CCN(C(=O)c3ccc(OC(C)C)c(C)c3)CC2)CN1CC (centres unmarked) [Compound 40] | > 5
41 | CCC1CN(c2ccccn2)CC2(CCN(C(=O)c3ccc(C(C)(C)O)c(F)c3)CC2)O1 (centres unmarked) [Compound 41] | < 2

Row | Structure (SMILES) | IC50 [µM]
42 | Cc1nc(C(=O)N2CCC3(CC2)CN(CC(F)(F)F)CC(c2ccccc2)O3)ccc1OC(C)C (centres unmarked) [Compound 42] | < 2
43 | CCN1CC2(CCN(C(=O)c3ccc(OC(C)C)c(OC)c3)CC2)OCC1c1ccccc1 (centres unmarked) [Compound 43] | 2 to 5
44 | Cc1cc(C(=O)N2CCC3(CC2)CN(CC(F)F)CC(c2ccccc2F)O3)ccc1OC(C)C (centres unmarked) [Compound 44] | < 2
45 | CC(C)Oc1ccc(C(=O)N2CCC3(CC2)CN(CC(F)F)CC(c2ccccc2F)O3)cc1F (centres unmarked) [Compound 45] | < 2
46 | CCC1CN(CC2CC2)CC2(CCN(C(=O)c3ccc(OC(C)C)c(C)c3)CC2)O1 (centres unmarked) [Compound 46] | < 2
47 | COCC1CN(CC2CCC2)CC2(CCN(C(=O)c3ccc(OC(C)C)c(C)c3)CC2)O1 (centres unmarked) [Compound 47] | < 2
48 | CCC(CC)N1CC(COC)OC2(CCN(C(=O)c3ccc(OC(C)C)c(C)c3)CC2)C1 (centres unmarked) [Compound 48] | < 2
49 | Cc1cnc(C2CN(C(C)(C)C)CC3(CCN(C(=O)c4ccc(OC(C)C)c(C)c4)CC3)O2)o1 (centres unmarked) [Compound 49] | < 2
50 | CCC1CN(c2ncccn2)CC2(CCN(C(=O)c3ccc(C4(O)CCCC4)c(C)c3)CC2)O1 (centres unmarked) [Compound 50] | < 2
51 | Cc1cc(C(=O)N2CCC3(CC2)CN(c2ncccn2)C(C)(C)CO3)ccc1OC(C)C [Compound 51] | > 5
52 | CC#CCN1CC(CC)OC2(CCN(C(=O)c3ccc(OC(C)C)c(Cl)c3)CC2)C1 (centres unmarked) [Compound 52] | < 2
53 | COCC1CN(c2ncccn2)CC2(CCN(C(=O)c3ccc(C(C)(C)O)c(F)c3)CC2)O1 (centres unmarked) [Compound 53] | 2 to 5
54 | CCC1CN(c2ccccn2)CC2(CCN(C(=O)c3ccc(C4(O)CCCCC4)cc3)CC2)O1 (centres unmarked) [Compound 54] | < 2
55 | CCOCCN1CC(COC)OC2(CCN(C(=O)c3ccc(OC(C)C)c(C)c3)CC2)C1 (centres unmarked) [Compound 55] | < 2
56 | COCC#Cc1ccc(C(=O)N2CCC3(CC2)CN(CC(F)(F)F)CC(c2ccccc2)O3)cc1F (centres unmarked) [Compound 56] | 2 to 5
57 | CC(C)(O)c1ccc(C(=O)N2CCC3(CC2)CN(CC(F)F)CC(c2ccccn2)O3)cc1F (centres unmarked) [Compound 57] | 2 to 5
58 | COCC1CN(c2cccc(C(F)(F)F)c2)CC2(CCN(C(=O)c3ccc(C(C)(C)O)c(F)c3)CC2)O1 (centres unmarked) [Compound 58] | < 2
59 | O=C(c1ccc(C(O)C2CC2)cc1)N1CCC2(CC1)CN(CC(F)(F)F)CC(c1ccccc1)O2 (centres unmarked) [Compound 59] | < 2
